Test results reported in EP1203770A1 (priority 1992, dated 1994).
Counter-ions that a name gives are not always drawn. Like-named read-outs stand apart in the source and are kept apart here.

Target: T1, HIV-1 protease (Human immunodeficiency virus type 1 group M subtype B, UniProt P04585)
T1 construct: The protease (or proteinase), consisting of only 99 amino acids, is among the smallest enzymes known
Assay: In vitro HIV protease inhibitory assay (HIV Protease FITC Assay)
Format: biochemical
Conditions: for inhibition at 1 µM / inhibition at 10 µM / inhibition at 100 µM: read-out: HIV-1 Protease % Inhib
Method: The HIV protease screening assay is based on a fluorescently labeled substrate which can be resolved from nonlabeled cleavage product using avidin-polystyrene particles, 0.7-0.9 µm. The substrate is biotinylated at the amino terminal arginine and fluorescently labeled with fluorescein isothiocynate (FITC) at the carboxyl terminal lysine. […] Substrate (20 µl of 0.2 µM), sample (10 µl of desired concentraion), and enzyme (10 µl of 0.1 µM) are added to a 96 well pandex plate. The assay is run in 0.1 M sodium acetate buffer at pH 5.5 in the presence of 1.0 M sodium chloride and 0.05% NP-40 and incubated in the dark for one hour at room temperature. Avidin coated polystyrene beads {40 µl of 0.1% (w/v)} are added and the incubation is continued in the dark for an additional half hour. The labeled cleavage product is separated from the unreacted substrate via filtration and is read on the Idexx Screen Machine. The data are analyzed by appropriate computer algorithms to ascertain percent inhibition values.

Compound | IC50 [nM] | inhibition at 1 µM (HIV-1 Dose 1.000 uM) [%] | inhibition at 10 µM (HIV-1 Dose 10.000 uM) [%] | inhibition at 100 µM (HIV-1 Dose 100.000 uM) [%] | other results
3-(.alpha.-ethylbenzyl)-4-hydroxy-6-(3-butenyl)-2H-Pyran-2-one [Example 10] | 2900 | – | – | – | HIV-1 Protease % Inhib (HIV-1 Dose 1.000 uM): 14.18%; HIV-1 Protease % Inhib (HIV-1 Dose 10.000 uM): 82.75%; HIV-1 Protease % Inhib (HIV-1 Dose 100.000 uM): 104.37%
3-(.alpha.-ethylbenzyl)-4-hydroxy-6-propyl-2H-Pyran-2-one [Example 9] | 19200 | – | – | – | HIV-1 Protease % Inhib (HIV-1 Dose 1.000 uM): 16.27%; HIV-1 Protease % Inhib (HIV-1 Dose 10.000 uM): 73.49%; HIV-1 Protease % Inhib (HIV-1 Dose 100.000 uM): 98.35%
3-(α-Cyclopropyl-meta-(tert-butyloxycarbonylamino)benzyl)-6-(α-cyclopropylmethyl-cyclopropylethyl)-4-hydroxy-2H-pyran-2-one [Example 38] | – | – | – | – | HIV-1 Protease % Inhib (HIV-1 Dose 0.123 uM): <10%; HIV-1 Protease % Inhib (HIV-1 Dose 0.370 uM): <10%; HIV-1 Protease % Inhib (HIV-1 Dose 1.100 uM): <10%; HIV-1 Protease % Inhib (HIV-1 Dose 3.300 uM): 26.72%; HIV-1 Protease % Inhib (HIV-1 Dose 10.000 uM): 58.44%; HIV-1 Protease % Inhib (HIV-1 Dose 30.000 uM): 69.94%
CCC(c1ccccc1)c1c(O)cc(-c2ccccc2)oc1=O (stereo not drawn) [Example 1, 3-(α-ethylbenzyl)-4-hydroxy-6-phenyl-2H-Pyran-2-one] | – | < 10 | 45.5 | 80 | –
CCC(c1ccccc1)c1c(O)cc(Cc2ccccc2)oc1=O (stereo not drawn) [Example 2, 6-benzyl-3-(α-ethylbenzyl)-4-hydroxy-2H-Pyran-2-one] | – | < 10 | 38.7 | 74.3 | –
CCCC(c1ccc(Br)cc1)c1c(O)cc(CCc2ccccc2)oc1=O (stereo not drawn) [Example 4, 4-hydroxy-6-phenethyl-3-(α-propyl-p-bromobenzyl)-2H-Pyran-2-one] | – | < 10 | 15.8 | 51.2 | –
CCC(c1ccccc1)c1c(O)cc(CCc2ccc(Br)cc2)oc1=O (stereo not drawn) [Example 6, 6-(p-bromophenethyl)-3-(α-ethylbenzyl)-4-hydroxy-2H-Pyran-2-one] | – | 15.6 | 39.6 | 69.7 | –
CCC(c1ccccc1)c1c(O)cc(CCc2ccccc2F)oc1=O (stereo not drawn) [Example 7, 3-(α-ethylbenzyl)-6-(o-fluorophenethyl)-4-hydroxy-2H-Pyran-2-one] | 6400 | 14 | 74.1 | 109 | HIV-1 Protease % Inhib (HIV-1 Dose 100.000 uM): 109%
CCC(c1ccccc1)c1c(O)cc(CCCc2ccccc2)oc1=O (stereo not drawn) [Example 8, 3-(α-ethylbenzyl)-4-hydroxy-6-(3-phenylpropyl)-2H-Pyran-2-one] | 3900 | 15.8 | 79 | 96.6 | HIV-1 Protease % Inhib (HIV-1 Dose 100.000 uM): 97%
CCC(c1ccccc1)c1c(O)cc(CC(=O)Nc2ccccc2)oc1=O (stereo not drawn) [Example 11, 3-(α-ethylbenzyl)-4-hydroxy-6-[[(phenylamino)carbonyl]methyl]-2H-Pyran-2-one] | – | 10.8 | 35.6 | 79.8 | –
C=CC(c1ccccc1)c1c(O)cc(CCc2ccccc2)oc1=O (stereo not drawn) [Example 12, 4-hydroxy-6-phenethyl-3-(α-vinylbenzyl)-2H-Pyran-2-one] | 5400 | 17.5 | 67.4 | 107 | HIV-1 Protease % Inhib (HIV-1 Dose 100.000 uM): 107%
CCC(CC)c1cc(O)c(C(CC)c2ccccc2)c(=O)o1 (stereo not shown) [Example 14, 6-(1'-Ethyl-propyl)-4-hydroxy-3-(1'-phenyl-propyl)-2-pyrone] | 2200 | 40.2 | 90.2 | 105 | –
CCC(c1ccccc1)c1c(O)cc(C=Cc2ccc(OC)cc2)oc1=O (stereo not drawn) [Example 15, 3-(α-ethylbenzyl)-4-hydroxy-6-(p-methoxystyryl)-2H-Pyran-2-one] | 9700 | 21.5 | 84 | 102 | –
CCC(c1ccccc1)c1c(O)cc(CCc2ccc3ccccc3c2)oc1=O (stereo not drawn) [Example 16, 3-(α-ethylbenzyl)-4-hydroxy-6-(2-naphth-2-ylethyl)-2H-Pyran-2-one] | – | < 10 | < 10 | 49.9 | –
CCC(Cc1ccc2ccccc2c1)c1cc(O)c(C(CC)c2ccccc2)c(=O)o1 (stereo not drawn) [Example 17, 3-(α-ethylbenzyl)-4-hydroxy-6-(1-ethyl-2-naphth-2-ylethyl)-2H-Pyran-2-one] | – | < 10 | 49.5 | 73.6 | –
CCC(c1ccccc1)c1c(O)cc(CCc2cccc3ccccc23)oc1=O (stereo not drawn) [Example 18, 3-(α-ethylbenzyl)-4-hydroxy-6-(2-naphth-1-ylethyl)-2H-Pyran-2-one] | – | < 10 | 42.1 | 86.8 | –

Compound | IC50 [nM] | inhibition at 1 µM (HIV-1 Dose 1.000 uM) [%] | inhibition at 10 µM (HIV-1 Dose 10.000 uM) [%] | inhibition at 100 µM (HIV-1 Dose 100.000 uM) [%] | other results
CCC(Cc1cccc2ccccc12)c1cc(O)c(C(CC)c2ccccc2)c(=O)o1 (stereo not drawn) [Example 19, 3-(α-ethylbenzyl)-4-hydroxy-6-(1-ethyl-2-naphth-1-ylethyl)-2H-Pyran-2-one] | – | 11 | 79.3 | 84.3 | –
Cc1cc(O)c(C(c2ccccc2)C2CC2)c(=O)o1 (stereo not drawn) [Example 20, 3-(α-cyclopropylbenzyl)-4-hydroxy-6-methyl-2H-Pyran-2-one] | – | < 10 | < 10 | 60.6 | –
O=c1oc(CCCc2ccccc2)cc(O)c1C(c1ccccc1)C1CC1 (stereo not drawn) [Example 21, 3-(α-cyclopropylbenzyl)-4-hydroxy-6-(3-phenylpropyl)-2H-Pyran-2-one] | 9600 | 17.6 | 83.7 | 110 | –
CCC(CC)c1cc(O)c(C(c2ccccc2)C2CC2)c(=O)o1 (stereo not drawn) [Example 22, 3-(α-cyclopropylbenzyl)-6-(1-ethylpropyl)-4-hydroxy-2H-Pyran-2-one] | 1800 | 33.8 | 98.3 | 108 | –
O=c1oc(C(Cc2ccccc2)Cc2ccccc2)cc(O)c1C(c1ccccc1)C1CC1 (stereo not drawn) [Example 23, 3-(α-cyclopropylbenzyl)-6-(α-benzylphenethyl)-4-hydroxy-2H-Pyran-2-one] | 3000 | < 10 | 77.9 | 87 | –
O=c1oc(CCc2ccccc2)cc(O)c1C(c1ccccc1)C1CC1 (stereo not drawn) [Example 24, 3-(α-cyclopropylbenzyl)-4-hydroxy-6-phenethyl-2H-Pyran-2-one] | 6300 | < 10 | 61.3 | 105 | –
CCCC(CCC)c1cc(O)c(C(c2ccccc2)C2CC2)c(=O)o1 (stereo not drawn) [Example 25, 3-(α-cyclopropylbenzyl)-6-(1-propylbutyl)-4-hydroxy-2H-Pyran-2-one] | – | – | – | – | Ki (read-out: HIV-1 FITC Ki): 41 nM
CCC(c1ccccc1)C1C(=O)CC(CC)(c2ccccc2)OC1=O (stereo not drawn) [Example 26, 6-Ethyl-3-(α-ethylbenzyl)-6-phenyl-tetrahydropyran-2,4-dione] | – | – | – | – | Ki: 163 nM; inhibition at 1 µM: 38.7%; inhibition at 10 µM: 78.8%; inhibition at 100 µM: 86.3%
CCC1(CC)CC(=O)C(CCCc2ccccc2)C(=O)O1 (stereo not shown) [Example 27, 6,6-Diethyl-3-(3-phenylpropyl)-tetrahydropyran-2,4-dione] | – | 14.7 | 41.4 | 90.5 | –
CCCC1(c2ccccc2)CC(O)=C(C(CC)c2cccc(O)c2)C(=O)O1 (stereo not shown) [Example 30, 5,6-Dihydro-4-hydroxy-6-phenyl-6-propyl-3-[1-(3-hydroxyphenyl)-propyl]-2H-pyran-2-one] | – | 46.4 | 86 | 75.7 | –
CCC(C1=C(O)CC(c2ccccc2)(C2CCCCC2)OC1=O)c1cccc(O)c1 (stereo not shown) [Example 31, 5,6-Dihydro-4-hydroxy-6-cyclohexyl-6-phenyl-3-[1-(3-hydroxyphenyl)propyl]-2H-pyran-2-one] | – | – | – | – | Ki: 610 nM; inhibition at 1 µM: 18.7%; inhibition at 10 µM: 81%; inhibition at 100 µM: 86%
CCCC1(c2ccccc2)CC(O)=C(C(CC)c2ccccc2)C(=O)O1 (stereo not shown) [Example 32, 5,6-Dihydro-4-hydroxy-6-phenyl-6-propyl-3-(1-phenylpropyl)-2H-pyran-2-one] | – | – | – | – | Ki: 250 nM; inhibition at 1 µM: 56.1%; inhibition at 10 µM: 106%; inhibition at 100 µM: 93.1%
CCC(C1=C(O)CC2(CCCCC2)OC1=O)c1ccccc1 (stereo not shown) [Example 33, 4-Hydroxy-1-oxa-3-(1-phenylpropyl)spiro-[5,5]-undec-3-en-2-one, sodium salt] | – | – | – | – | inhibition at 1 µM: 10.2%; inhibition at 10 µM: 68.5%; inhibition at 100 µM: 80.7%
C=CC(c1ccccc1)C1C(=O)CC(C)(c2ccccc2)OC1=O (stereo not shown) [Example 34, Dihydro-6-methyl-6-phenyl-3-(1-phenyl-2-propenyl)-2H-Pyran-2,4(3H)-dione] | – | < 10 | 56.5 | 67.9 | Ki (read-out: HIV-1 FITC Ki): 625 nM
CCCC1(c2ccccc2)CC(=O)C(C(CC)c2cccc(O)c2)C(=O)O1 (stereo not shown) [Example 35, Dihydro-3-(1-(3-hydroxyphenyl)propyl]-6-phenyl-6-propyl-2H-pyran-2,4(3H)-dione] | – | 23.8 | 79.8 | 73.6 | –
